# Where “and” joins values, the source holds several entries; their conditions need not be identical. Identical values can stand only once. Where a SMILES comes first, the peptide text is derived from it. [ ]: non-standard residue; d: D form.
# Tests used:
# human RBCs = assay type: cell-based
# Procedure: Human O+ erythrocytes were obtained from Interstate Blood Bank, Inc. Red blood cells were subjected to four or more cycles of centrifugation at 1000g with resuspension in fresh PBS. Following the final wash step, the supernatant was clear and colorless. RBC concentration was determined using a standard hemocytometer.
# Peptide was serially diluted in PBS starting at a concentration of 100 μM. The final volume of peptide in each well was 50 μL. To each well, 50 μL of RBCs in PBS at 2 × 10^8 cells/mL was added. As a positive lysis control, 1% Triton was used. The mixtures were incubated at 37 °C for 1 h, after which they were centrifuged at 1000g for 5 min. After centrifugation, 10 μL of supernatant was transferred to 90 μL of DI H2O in a fresh 96-well plate. The absorbance of released hemoglobin at 410 nm was recorded, and the fractional hemolysis was calculated based on the 100 and 0% lysis controls. At least three independent experiments were performed. Results shown are averages.
# [1] = tested on: K. pneumoniae subsp. pneumoniae (ATCC 13883)
# Procedure: All peptide variants were synthesized and purified as described previously.[5],[7] They were tested in broth dilution in the presence and absence of 1 × 10^9 human RBCs per mL, 20% of the concentration in human blood, against Escherichia coli, K. pneumoniae, and Staphylococcus aureus. […] The toxicity of the variants was tested by measuring hemolysis as well as cytotoxicity against human WI-38 fibroblast cells.
# Subcultures, prepared by inoculating 25 mL of fresh tryptic soy broth (TSB) with 200 μL of an overnight culture, were grown to log phase (OD600 = 0.3–0.6), after which cell counts were determined by measuring the OD600 (1.0 = 5 × 10^8 CFU/mL for E. coli, 4 × 10^8 CFU/mL for K. pneumoniae, 4 × 10^8 CFU/mL for P. aeruginosa, 1.5 × 10^8 CFU/mL for S. aureus). Bacterial cells were diluted to appropriate concentrations in TSB. We used the following clinical bacterial isolates of Klebsiella pneumoniae in this study: Strains KP6, KP46, NDM-1, KP396, and KP398 have been previously described.[43] ST58 strains C2, C3, and I2 are also described.[41] […] MRSA, […] S. aureus strain, is SAP400, a USA400 strain of community-acquired MRSA. […] The second independent set of K. pneumoniae isolates are previously described.[20],[21]
# The antibiotics were serially diluted by a factor of 2:3 horizontally across 96-well plates from Corning, 25 μL per well. One column was reserved for controls. For the assays performed in the presence of RBC, type O+ human RBCs at 0 or 2.5 × 10^9 cells/mL were added in 50 μL aliquots to all wells. Following a 30-min incubation, 50 μL of TSB, inoculated with 5 × 10^5 CFU/mL, was added to all wells, and plates were incubated overnight at 37 °C. Following overnight incubation at 37 °C, the OD600 was measured (values of less than 0.1 were considered sterilized). To assess bacterial growth in the assays with RBC, the OD600 was measured after a second-day inoculation with 10 μL of solution from the original plate added to 100 μL of sterile TSB followed by overnight incubation.
# Experiments were repeated four to eight times independently, with pairs of replicate measurements on each 96-well plate. After overnight growth, optical densities were measured at 660 nm and the sterilized wells were identified by having O.D. < 0.08. Nonsterilized wells were nearly opaque with OD > 0.6. For each measurement, we recorded the largest dilution that sterilized the bacteria. Statistics are done on dilution numbers, rather than calculated concentrations, because only the former have normal distributions.
# [2] = tested on: WI-38 human fibroblast cells; test: in vitro; assay type: cell-based
# Procedure: The day before cytotoxicity experiments, the 10,000 cells/well were plated in a 96-well tissue-culture plate. […] To perform the cytotoxicity assay, media was removed from the wells and replaced with peptide solutions. […] The plate was read for SYTOX fluorescence every 5 min for an hour with an excitation wavelength of 504 nm and an emission wavelength of 523 nm. Percent cytotoxicity was calculated at 60 min using the 100 and 0% lysis controls. At least three independent experiments were averaged.
# [3] = tested on: P. aeruginosa PAO1 (EYFP) pellicle biofilms; test: Pellicle biofilm assay, viable cell enumeration; assay type: cell-based, Pseudomonas aeruginosa; details: 2 μM, 48 h pellicle biofilm, 24 h challenge, dispersing and counting viable cells
# Procedure: Here, we directly compare the antibiofilm activity of D-CONGA and D-CONGA-Q7 using a mature pellicle biofilm of P. aeruginosa.[22] […] To determine the susceptibility of pellicle biofilms to D-CONGA and D-CONGA-Q7, we cultured 2-day-old biofilms as described in the Methods section. The coverslip-adhered biofilms were exposed to challenge solution for 24 h prior to staining with SYTOX red and imaging with CLSM for EYFP, which indicates live cells, and for SYTOX Red which stains dead cells and extracellular DNA. […] The % cell survival was quantitated in two ways: (i) COMSTAT was used to compare biofilm biomass in CLSM images by estimating the biofilm biovolume, which is calculated as the overall volume/substratum area (μm^3/μm^2).[24],[25] […] (ii) The biofilms were dispersed mechanically for subsequent enumeration of viable cells such that % survival is expressed as the ratio (CFUuntreated biofilm/CFUtreated biofilm).
# The susceptibility of biofilm-embedded P. aeruginosa cells to the antimicrobial peptides was studied as reported previously[23] using a P. aeruginosa PAO1 strain expressing enhanced yellow fluorescent protein (EYFP).[22] The EYFP-expressing P. aeruginosa strain was routinely grown in Pseudomonas Isolation (PI) media (20 g/L peptone, 0.3 g/L, MgCl2·6H2O, 10 g/L, K2SO4, 25 mg/L irgasan, and 20 mL/L glycerol, pH 7.0). […] Iron supplementation was carried out by addition of a small volume of filter-sterilized 10 mM (NH4)2Fe(SO4)2 (pH ∼ 2.0) solution.
# In brief: Starter cultures (5 mL PI media supplemented with 10 μM Fe) were grown (14 h) from a single-colony shaking (220 rpm) at 37 °C. To grow the pellicle biofilms, starter cultures were diluted to OD600 = 0.001 in 4 mL of PI media supplemented with 20 μM Fe, placed in 35 × 10 mm Petri dishes, and incubated statically at 30 °C for 48 h. The pellicles were harvested using circular (1.5 cm diameter) glass coverslips by gently allowing the surface of a coverslip to contact the biofilm at the air–liquid interface. […]
# P. aeruginosa = details: cited from earlier work
Molecule,Hemolysis at 100 μM (fractional hemolysis) (human RBCs),"MIC in Broth Dilution, K. Pneumoniae [1] [µM]",EC50 [2] [µM],Reduction of biofilm CFU [3],reported MIC (P. aeruginosa)
CC(C)C[C@@H](NC(=O)[C@@H](CCCNC(=N)N)NC(=O)[C@@H](CCCNC(=N)N)NC(=O)[C@@H](C)NC(=O)[C@@H](Cc1c[nH]c2ccccc12)NC(=O)[C@@H](CCCNC(=N)N)NC(=O)[C@H](N)CCCNC(=N)N)C(=O)N[C@H](C)C(=O)N[C@H](Cc1ccccc1)C(=O)N[C@H](C)C(=O)N[C@H](Cc1ccccc1)C(=O)N[C@H](CCCNC(=N)N)C(N)=O [D-CONGA-ΔR13] (H-[dR][dR][dW][dA][dR][dR][dL][dA][dF][dA][dF][dR]-NH2; N-terminus and C-terminus assumed),0.03,2.1,300,,
colistin,,,,no detectable activity,1 μg/mL and 0.79 μM

# Source: paper PMC10111420, “Optimization of Host Cell-Compatible, Antimicrobial Peptides Effective against Biofilms and Clinical Isolates of Drug-Resistant Bacteria” (ACS Infectious Diseases, 2023)
